Measurements as given in patent US12024518B1, “Pyrazolo[4,3-C][1,6]naphthyridines as CK2 inhibitors” (KING FAISAL UNIVERSITY, priority 2023, dated 2024).
pIC50: −log10 of the molar value.

What was measured:
A375 (melanoma) = test: In vitro cytotoxic activity (MTT) assay, A375; format: cell-based; conditions: Homo sapiens, A-375; A375 (melanoma) cells, exposed for 96 hours, 50% inhibition of cell proliferation; read-out: Cytotoxicity activity IC50
Procedure: (§1) Compounds 1-16 were screened for their in vitro cytotoxic activity utilizing a 3-(4,5-dimethyl-thiazol-2-yl)-2,5-diphenyltetrazolium bromide (MTT) assay against selected cancer human cell lines consisting of PC3 (prostate), HCT116 (colon), A375 (melanoma), H1299 (lung), MIAPaCa-2 (pancreas), HL60 (leukemia), MCF7 (breast), MDA-MB-231 (breast) (T. Mosmann, J. Immunol. Meth., 1983, 65, 55-63). The cells were cultured at 37° C. in RMPI1640 medium supplemented with 10% fetal bovine serum, 50 IU/mL penicillin, and 50 μg/mL streptomycin in a 5% CO2 incubator. All cells were sub-cultured 3 times/week by trypsinisation. Viable cells were seeded and allowed to adhere for 12 hours before a test drug was added in 96-well plates at an initial density of 1.0×10^5 cells/mL. Tumor cell lines were separately exposed to various concentrations of the tested compounds followed by incubation at a temperature of 37° C. during 96 hours inside a medium of fresh RMPI 1640. Cells were subsequently incubated at 37° C. using MTT at 0.5 mg/mL during 4 hours. After removal of supernatant, formazan crystals were dissolved in isopropanol and the optical density was measured at 570 nm. CX-4945 was used as a positive control.

MDA-MB-231 (breast) = test: In vitro cytotoxic activity (MTT) assay, MDA-MB-231; format: cell-based; conditions: Homo sapiens; MDA-MB-231 (breast) cells, exposed for 96 hours, 50% inhibition of cell proliferation; read-out: Cytotoxicity activity IC50
Procedure: as §1

HCT116 (colon) = test: In vitro cytotoxic activity (MTT) assay, HCT116; format: cell-based; conditions: Homo sapiens, HCT-116; HCT116 (colon) cells, exposed for 96 hours, 50% inhibition of cell proliferation; read-out: Cytotoxicity activity IC50
Procedure: as §1

MIAPaCa-2 (pancreas) = test: In vitro cytotoxic activity (MTT) assay, MIAPaCa-2; format: cell-based; conditions: Homo sapiens, MIA PaCa-2; MIAPaCa-2 (pancreas) cells, exposed for 96 hours, 50% inhibition of cell proliferation; read-out: Cytotoxicity activity IC50
Procedure: as §1

HL60 (leukemia) = test: In vitro cytotoxic activity (MTT) assay, HL60; format: cell-based; conditions: Homo sapiens, HL-60; HL60 (leukemia) cells, exposed for 96 hours, 50% inhibition of cell proliferation; read-out: Cytotoxicity activity IC50
Procedure: as §1

PC3 (prostate) = test: In vitro cytotoxic activity (MTT) assay, PC3; format: cell-based; conditions: Homo sapiens; PC3 (prostate) cells, exposed for 96 hours, 50% inhibition of cell proliferation; read-out: Cytotoxicity activity IC50
Procedure: as §1

[1] = target: T1, recombinant human CK2 (RRββ-holoenzyme) (Homo sapiens, UniProt P68400); test: CK2 Kinase Assay (33P-ATP, substrate peptide RRRDDDSDDD); format: biochemical; conditions: final ATP concentration 15 μM, 10 min at 30° C., eight concentrations; read-out: protein kinase CK2 inhibition IC50
T1 construct: purchased Millipore
Procedure: CK2 Kinase Assay was conducted using the protocol as described in Pierre F. et al; J. Med. Chem. 2011, 54, 635-654. The tested compounds in aqueous solution were added at a volume of 10 μL to a reaction mixture comprising 10 μL of assay dilution buffer (ADB; 20 mM MOPS, pH 7.2, 25 mM β-glycerol phosphate, 5 mM EGTA, 1 mM sodium orthovanadate, and 1 mM dithiothreitol), 10 μL of substrate peptide (RRRDDDSDDD, dissolved in ADB at a concentration of 1 mM), 10 μL of recombinant human CK2 (RRββ-holoenzyme, 25 ng dissolved in ADB; Millipore). Reactions were initiated by the addition of 10 μL of ATP solution (90% 75 mMMgCl2, 75 μM ATP (final ATP concentration: 15 μM) dissolved in ADB; 10% [γ-33P] ATP (stock 1 mCi/100 μL; 3000 Ci/mmol (Perkin-Elmer) and maintained for 10 min at 30° C. The reactions were quenched with 100 μL of 0.75% phosphoric acid and then transferred to and filtered through a phosphor cellulose filter plate (Millipore). After washing each well five times with 0.75% phosphoric acid, the plate was dried under vacuum for 5 min and, following the addition of 15 μL of scintillation fluid to each well, the residual radioactivity was measured using a Wallac luminescence counter. The IC50 values were derived from eight concentrations of test inhibitors.

MCF7 (breast) = test: In vitro cytotoxic activity (MTT) assay, MCF7; format: cell-based; conditions: Homo sapiens; MCF7 (breast) cells, exposed for 96 hours, 50% inhibition of cell proliferation; read-out: Cytotoxicity activity IC50
Procedure: as §1

H1299 (lung) = test: In vitro cytotoxic activity (MTT) assay, H1299; format: cell-based; conditions: Homo sapiens, NCI-H1299; H1299 (lung) cells, exposed for 96 hours, 50% inhibition of cell proliferation; read-out: Cytotoxicity activity IC50
Procedure: as §1

T1 sequence (P68400 whole entry): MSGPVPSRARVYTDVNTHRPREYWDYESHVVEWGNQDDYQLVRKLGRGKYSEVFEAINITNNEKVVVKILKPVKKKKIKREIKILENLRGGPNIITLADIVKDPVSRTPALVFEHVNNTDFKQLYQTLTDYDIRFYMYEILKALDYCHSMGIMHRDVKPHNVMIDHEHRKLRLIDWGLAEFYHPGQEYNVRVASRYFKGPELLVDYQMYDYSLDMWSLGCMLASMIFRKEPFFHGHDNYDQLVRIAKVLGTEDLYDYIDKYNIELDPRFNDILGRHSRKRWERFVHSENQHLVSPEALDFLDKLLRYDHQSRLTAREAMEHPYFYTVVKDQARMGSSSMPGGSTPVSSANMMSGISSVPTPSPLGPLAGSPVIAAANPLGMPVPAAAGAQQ
T1 sequence (P67870 whole entry partner): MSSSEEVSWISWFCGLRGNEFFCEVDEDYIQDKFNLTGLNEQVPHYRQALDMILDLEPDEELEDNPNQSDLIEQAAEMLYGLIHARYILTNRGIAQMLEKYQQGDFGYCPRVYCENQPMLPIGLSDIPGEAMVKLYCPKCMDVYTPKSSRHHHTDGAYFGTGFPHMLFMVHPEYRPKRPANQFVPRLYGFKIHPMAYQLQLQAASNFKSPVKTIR

pIC50 [1]: 7.32
SMILES: O=C(O)c1n[nH]c2c1c(Nc1cccc(Cl)c1)nc1ccncc12 [Compound 1, 4-((3-chlorophenyl)amino)-1H-pyrazolo[4,3-c][1,6]naphthyridine-3-carboxylic acid]
pIC50 (A375 (melanoma)): 5.42
pIC50 (MDA-MB-231 (breast)): 5.24
pIC50 (HCT116 (colon)): 5.77
pIC50 (MIAPaCa-2 (pancreas)): 5.85
pIC50 (HL60 (leukemia)): 5.54
pIC50 (PC3 (prostate)): 5.60
pIC50 (MCF7 (breast)): 5.20
pIC50 (H1299 (lung)): 5.72
